For the assay, the target named is T1, RORc ligand binding domain (Homo sapiens, UniProt P51449).
T1 construct: host or cells: E. coli
T1 sequence (P51449 269-508 limits assumed): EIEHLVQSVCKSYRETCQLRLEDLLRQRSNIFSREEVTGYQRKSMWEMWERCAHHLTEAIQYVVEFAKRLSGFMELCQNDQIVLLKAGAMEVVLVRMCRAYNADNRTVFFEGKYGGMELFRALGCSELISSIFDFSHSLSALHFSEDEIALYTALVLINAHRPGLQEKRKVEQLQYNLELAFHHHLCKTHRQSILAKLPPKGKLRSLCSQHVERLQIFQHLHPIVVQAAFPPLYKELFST
In words: In vitro RORc ligand binding assay (25-[3H]hydroxycholesterol displacement, filter binding). To be noted: 6 nM 25-[3H]hydroxycholesterol, 0.6 ug/mL RORc receptor, 3 h at 25° C. In a few lines:
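Compounds in 5% DMSO, either dose-response or screened at 1 and 10 uM, competed with 6 nM 25-[3H]hydroxycholesterol for 0.6 ug/mL RORc over 3 h at 25° C (HEPES pH 7.4, NaCl, MgCl2, DTT, BSA buffer). Bound tracer was filter-harvested and counted; nonspecific binding came from 1 uM 25-hydroxycholesterol.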

`C[C@H]1CN(C(=O)[C@]23CC[C@H](c4cc(-c5c(F)cccc5F)nnc42)C3(C)C)C[C@@H]1O` [Example 220, ((5S,8S)-3-(2,6-difluorophenyl)-9,9-dimethyl-5,6,7,8-tetrahydro-5,8-methanocinnolin-8-yl)((3R,4S)-3-hydroxy-4-methylpyrrolidin-1-yl)methanone]: the IC50 – broadly, the concentration at which inhibition is half-maximal – was 2940 nM. The same measure for `CC1(C)[C@H]2CC[C@]1(c1ccon1)c1nnc(-c3c(F)cccc3F)cc12` [Example 197, 3-((5R,8R)-3-(2,6-difluorophenyl)-9,9-dimethyl-5,6,7,8-tetrahydro-5,8-methanocinnolin-8-yl)isoxazole]: 44 nM; for `CC1(C)[C@H]2CC[C@]1(C(=O)N1CC3CC3C1)c1nnc(-c3c(F)cccc3F)cc12` (stereo partly drawn) [Example 147, 3-azabicyclo[3.1.0]hexan-3-yl((5R,8R)-3-(2,6-difluorophenyl)-9,9-dimethyl-5,6,7,8-tetrahydro-5,8-methanocinnolin-8-yl)methanone]: 8 nM. The same measure for `COCC[C@]12CC[C@H](c3cc(-c4ccccc4F)nnc31)C2(C)C` [Example 41, (5S,8S)-3-(2-fluorophenyl)-8-(2-methoxyethyl)-9,9-dimethyl-5,6,7,8-tetrahydro-5,8-methanocinnoline]: 54 nM; for `COC[C@]12CC[C@H](c3cc(-c4c(F)cccc4Cl)nnc31)C2(C)C` [Example 24, (5S,8S)-3-(2-chloro-6-fluorophenyl)-8-(methoxymethyl)-9,9-dimethyl-5,6,7,8-tetrahydro-5,8-methanocinnoline]: 45 nM. The same measure for `CC1(C)CCN(C(=O)[C@]23CC[C@H](c4cc(-c5c(F)cccc5F)nnc42)C3(C)C)C1` [Example 237, ((5S,8S)-3-(2,6-difluorophenyl)-9,9-dimethyl-5,6,7,8-tetrahydro-5,8-methanocinnolin-8-yl)(3,3-dimethylpyrrolidin-1-yl)methanone]: 498 nM; for `C[C@H]1CCCN1C(=O)[C@]12CC[C@H](c3cc(-c4c(F)cccc4F)nnc31)C2(C)C` [Example 234, ((5S,8S)-3-(2,6-difluorophenyl)-9,9-dimethyl-5,6,7,8-tetrahydro-5,8-methanocinnolin-8-yl)((S)-2-methylpyrrolidin-1-yl)methanone]: 238 nM; for `CCOC(=O)N(CCC#N)C[C@@]12CC[C@@H](c3cc(-c4c(F)cccc4F)nnc31)C2(C)C` [Example 312, ethyl (2-cyanoethyl)(((5R,8S)-3-(2,6-difluorophenyl)-9,9-dimethyl-5,6,7,8-tetrahydro-5,8-methanocinnolin-8-yl)methyl)carbamate]: 45 nM. Turning to `CC1(C)[C@@H]2CC[C@@]1(C(=O)N1CCOCC1)c1nnc(-c3c(F)cccc3F)cc12` [Example 54, [(5S,8S)-3-(2,6-difluorophenyl)-9,9-dimethyl-6,7-dihydro-5,8-methanocinnolin-8(5H)-yl](morpholin-4-yl)methanone], the IC50 came out at 42 nM. The same measure for `COCC(=O)N(CCC#N)C[C@@]12CC[C@@H](c3cc(-c4c(F)cccc4F)nnc31)C2(C)C` [Example 311, N-(2-cyanoethyl)-N-(((5R,8S)-3-(2,6-difluorophenyl)-9,9-dimethyl-5,6,7,8-tetrahydro-5,8-methanocinnolin-8-yl)methyl)-2-methoxyacetamide]: 176 nM.

As to `CCN(C[C@@]12CC[C@@H](c3cc(-c4c(F)cccc4F)nnc31)C2(C)C)S(=O)(=O)CCC(F)(F)F` [Example 345, N-(((5R,8S)-3-(2,6-difluorophenyl)-9,9-dimethyl-5,6,7,8-tetrahydro-5,8-methanocinnolin-8-yl)methyl)-N-ethyl-3,3,3-trifluoropropane-1-sulfonamide], the IC50 turned out to be 11 nM.

Molecule `CC1(C)[C@@H]2CC[C@@]1(C(=O)N1CCC(C#N)C1)c1nnc(-c3c(F)cccc3F)cc12` (stereo partly drawn) [Example 245, 1-((5S,8S)-3-(2,6-difluorophenyl)-9,9-dimethyl-5,6,7,8-tetrahydro-5,8-methanocinnoline-8-carbonyl)pyrrolidine-3-carbonitrile] registered an IC50 of 126 nM.

`CC1(C)[C@H]2CC[C@]1(NCC(F)F)c1nnc(-c3c(F)cccc3F)cc12` [Example 307, (5R,8R)-N-(2,2-difluoroethyl)-3-(2,6-difluorophenyl)-9,9-dimethyl-5,6,7,8-tetrahydro-5,8-methanocinnolin-8-amine] had an IC50 of 71 nM. In turn, `CC1(C)[C@H]2CC[C@]1(N(CC(F)F)C(=O)CO)c1nnc(-c3c(F)cccc3F)cc12` [Example 322, N-(2,2-difluoroethyl)-N-((5R,8R)-3-(2,6-difluorophenyl)-9,9-dimethyl-5,6,7,8-tetrahydro-5,8-methanocinnolin-8-yl)-2-hydroxyacetamide] yielded an IC50 of 1460 nM. The same measure for `CC1(C)[C@@H]2CC(=O)[C@@]1(C)c1nnc(-c3ccccc3F)cc12` [Example 50, (5S,8R)-3-(2-fluorophenyl)-8,9,9-trimethyl-5,8-dihydro-5,8-methanocinnolin-7(6H)-one]: 2420 nM; for `CCN(C[C@@]12CC[C@@H](c3cc(-c4c(F)cccc4F)nnc31)C2(C)C)C(=O)CC#N` [Example 160, 2-cyano-N-(((5R,8S)-3-(2,6-difluorophenyl)-9,9-dimethyl-5,6,7,8-tetrahydro-5,8-methanocinnolin-8-yl)methyl)-N-ethylacetamide]: 27 nM; for `COc1nnc([C@@]23CC[C@@H](c4cc(-c5c(F)cccc5F)nnc42)C3(C)C)o1` [Example 105, (5R,8R)-3-(2,6-difluorophenyl)-8-(5-methoxy-1,3,4-oxadiazol-2-yl)-9,9-dimethyl-5,6,7,8-tetrahydro-5,8-methanocinnoline]: 261 nM.

`CC1(C)[C@H]2CC[C@]1(NC(=O)CO)c1nnc(-c3ccccc3F)cc12` [Example 88, N-[(5R,8R)-3-(2-fluorophenyl)-9,9-dimethyl-6,7-dihydro-5,8-methanocinnolin-8(5H)-yl]-2-hydroxyacetamide] had an IC50 of 1440 nM. The same measure for `CCN(C[C@@]12CC[C@@H](c3cc(-c4c(F)cccc4F)nnc31)C2(C)C)c1nnc(C(F)(F)F)o1` [Example 303, N-(((5R,8S)-3-(2,6-difluorophenyl)-9,9-dimethyl-5,6,7,8-tetrahydro-5,8-methanocinnolin-8-yl)methyl)-N-ethyl-5-(trifluoromethyl)-1,3,4-oxadiazol-2-amine]: 10 nM. `CC1(C)[C@@H]2CC[C@@]1(N1CCCC1=O)c1nnc(-c3c(F)cccc3F)cc12` [Example 253, 1-((5S,8S)-3-(2,6-difluorophenyl)-9,9-dimethyl-5,6,7,8-tetrahydro-5,8-methanocinnolin-8-yl)pyrrolidin-2-one] displayed an IC50 of 961 nM.

The molecule `Cc1nc(C[C@@]23CC[C@@H](c4cc(-c5c(F)cccc5F)nnc42)C3(C)C)no1` [Example 59, (5R,8R)-3-(2,6-difluorophenyl)-9,9-dimethyl-8-[(5-methyl-1,2,4-oxadiazol-3-yl)methyl]-5,6,7,8-tetrahydro-5,8-methanocinnoline] gave an IC50 of 106 nM. Take `CC1(C)[C@@H]2CC[C@@]1(CO)c1nnc(-c3c(F)cccc3Cl)cc12` [Example 23, [(5S,8S)-3-(2-chloro-6-fluorophenyl)-9,9-dimethyl-6,7-dihydro-5,8-methanocinnolin-8(5H)-yl]methanol]: the IC50 is 381 nM. This IC50 lies about 3.6-fold higher than the previous one. The same measure for `CC1(C)[C@H]2CC[C@]1(c1ccn(CCC#N)n1)c1nnc(-c3c(F)cccc3F)cc12` [Example 287]: 623 nM; for `CC(NC(=O)[C@@]12CC[C@@H](c3cc(-c4ccccc4F)nnc31)C2(C)C)c1ccccc1` (stereo partly drawn) [Example 183, (5R,8R)-3-(2-fluorophenyl)-9,9-dimethyl-N-(1-phenylethyl)-5,6,7,8-tetrahydro-5,8-methanocinnoline-8-carboxamide]: 1000 nM.
